The record followed here is patent publication US10137162B1, “Gastroprotective extracts of Sonchus oleraceus L” (KING SAUD UNIVERSITY, priority 2018, dated 2018).

Assay [1] relates to ulcerative colitis induced by acetic acid. The assay can be described thus: acetic acid-induced ulcerative colitis. The assay is classed as in vivo, Male Wistar rats. Particulars: 0.1 mg/kg oral once daily, 5 days. The method, then:
All medications were administered orally, once daily for 5 consecutive days and the first dose was administered about 2 h after ulcerative colitis induction by about 2 mL (4%, v/v) acetic acid in saline. Ulcer indices (mm) were calculated as the sum of the total length of long ulcers and petechial lesions in each group of rats divided by its number. All values were expressed as mean+S.D. Comparisons between means were carried out using a one-way ANOVA test followed by the Tukey HSD test using SPSS, version 14 (SPSS, Chicago, Ill.). Differences at p<0.05 were considered statistically significant.

Assay [2] relates to absolute ethanol-induced ulcer. The assay can be described thus: absolute ethanol-induced ulcer model (gastroprotective activity). Format: in vivo, Male Wistar rats. Particulars: 20 mg/kg oral. Here is the method:
The absolute ethanol-induced ulcer model was used for evaluation of gastroprotective activity. Groups of 6 Male Wistar rats were used. Treated groups received either total alcohol extracts (SA or SR) at doses of about 250 mg/kg or about 500 mg/kg. […] A treatment group received Omeprazole (about 20 mg/kg) and a control group received water (about 5 mL/kg). All treatments were administered orally to all groups. […] After one hour all rats were sacrificed, the stomachs were rapidly removed, opened along their greater curvature, and gently rinsed under running tap water. The number and severity of ulcers were visually counted and the ulcer index was calculated. Ulcer indices (mm) were calculated as the sum of the total length of long ulcers and petechial lesions in each group of rats divided by its number. Percent protection was determined according to the following formula: [formula] All values were expressed as mean+S.D. Comparisons between means were carried out using a one-way ANOVA test followed by the Tukey HSD test using SPSS, version 14 (SPSS, Chicago, Ill.). Differences at p<0.05 were considered statistically significant.

As to `C[C@@H]1C[C@H]2[C@@H]3CCC4=CC(=O)C=C[C@]4(C)[C@@]3(F)[C@@H](O)C[C@]2(C)[C@@]1(O)C(=O)CO` [Dexamethasone, dexamethasone], the “% protection” value in assay [1] is 66.36%.
With `COc1ccc2[nH]c([S+]([O-])Cc3ncc(C)c(OC)c3C)nc2c1` (stereo not drawn) [Omeprazole], the Score in assay [2] (30 min before ethanol) is given as 2.50. Besides, in assay [2] (ethanol-induced ulcer), the “% protection” value is reported as 45.83%.
